{"source": "patent US10694724B2", "about": "“Transgenic mouse for the assessment of thyroid hormone (TH) action” (MAGYAR TUDOMÁNYOS AKADÉMIA KÍSÉRLETI ORVOSTUDOMÁNYI KUTATÓ …, priority 2014, dated 2020)", "key": {"[1]": {"system": "THAIC construct in HEK293 cells with mouse TRα", "assay": "Luciferase promoter assay in HEK293 cells transfected with THAIC and mouse TRα plasmid", "format": "cell-based, human", "conditions": "HEK293 transfected with THAIC, SB100 and mouse TRα plasmid; 100 nM T3", "method": "The THAIC construct was transfected to the human HEK293 cells along with a pCMV(CAT)T7-SB100 Sleeping Beauty transposon expressing vector and a mouse TRα encoding plasmid. Transfection and cell culturing of HEK293 cells was performed according to our established protocol (36). (FIG. 10)\n(B) We also used zeocin-assisted selection and obtained cultures stably expressing Luciferase and generated the HEK293-THAIC cell line stably expressing the TH action indicator construct of the THAM model. The reporter of the cell line is responsive to TH in a TR dependent manner."}, "[2]": {"system": "thyroid hormone receptor isoform specific action (TRβ dominant liver, TRα dominant heart; Luciferase reporter)", "assay": "Testing TR isoform specific agonists: Luciferase activity in liver and heart of line #4 with decreased endogenous thyroid hormone", "format": "in vivo, mouse", "conditions": "T3 administration", "method": "FIG. 7. The transgenic mouse model is capable to detect thyroid hormone receptor isoform specific T3 actions. […] Mean±SEM (n=5) ** p<0.01 by t test.\nWe decreased the endogenous thyroid hormone levels in line #4 by administering methimazole and perchlorate (0.1% methimazole, 0.5% perchlorate) in the drinking water followed by the i.p. injection of 1.53 nM/g BW of GC-24, a TRβ specific agonist (35). Luciferase activity assay was performed using our established protocol (34) modified for tissue samples, that included treatment of mouse tissue with liquid nitrogen, followed by sonication. In vivo Luciferase imaging has been performed on an IVIS Lumina II In vivo Imaging System (PerkinElmer Waltham, Mass., USA) according to the instructions of the manufacturer."}, "[3]": {"system": "TH action in live animals (Luciferase reporter)", "assay": "In vivo bioluminescence imaging of Luciferase in live line #4 mice", "design": "species or system mouse", "conditions": "1 μg/g BW T3 i.p., luciferin 24 h later", "method": "Mean±SEM (n=4) ** p<0.01 **p<0.0001 by t test.\nAfter 15 min, mice were anesthetized with ketamine followed by detection with […] In vivo Imaging System (PerkinElmer Waltham, Mass., USA)."}, "[4]": {"system": "luciferase mRNA as a readout of TH action", "assay": "Luciferase mRNA by TaqMan qPCR in the pituitary of line #23", "format": "in vivo, mouse", "conditions": "TaqMan assay", "method": "Expression was assessed with TaqMan assay, Luciferase expression level was denominated with GAPDH expression used as housekeeping gene. Mean±SEM (n=5) *** p<0.0001 by t test.\nWe also studied whether detection of luciferase mRNA can be used to detect as a readout of TH action in the generated transgenic model. […] TaqMan qPCR was performed on a ViiA 7 Real-Time PCR System (Life Technologies) according to the instructions of the manufacturer. In short, reverse transcription was performed with High Capacity cDNA Reverse Transcriptase Kit (Applied Biosystems by Life Technologies) and concentration of the cDNA was determined using the Qubit 2.0 Fluorometer with the Qubit ssDNA Assay Kit (Life Technologies). A custom Luciferase coding probe was used along with a commercially available probe for Glyceraldehyde-3-phosphate dehydrogenase (GAPDH), later used as housekeeping gene."}}, "data": [{"smiles": "N[C@@H](Cc1cc(I)c(Oc2ccc(O)c(I)c2)c(I)c1)C(=O)O", "note": "[T3, 3,5,3′-triiodothyronine]", "values": [{"measurement": "induction of Luciferase expression", "setting": "[1]", "result": "approximately 4 fold"}, {"measurement": "luciferase activity in both tissues (liver and heart)", "setting": "[2]", "result": "significant increase"}, {"measurement": "reporter activity in the BAT and intestine (in vivo imaging)", "setting": "[3]", "result": "very intense increase"}, {"measurement": "reporter activity in the mandibular salivary gland (MSG) and skin of the tail and foot pads (in vivo imaging)", "setting": "[3]", "result": "up-regulated"}, {"measurement": "induction of luciferase mRNA in the pituitary", "setting": "[4]; 1 μg/g bw T3 i.p., GAPDH housekeeping", "result": "~50", "unit": "fold"}, {"measurement": "Luciferase mRNA level in the pituitary", "setting": "[4]; T3-treatment, denominated with GAPDH", "result": "robustly increased"}]}]}
